In one data set the target is T1, PfuHjm (Pyrococcus furiosus, UniProt O73946).
T1 construct: gene hel308; full-length 720 residues, recombinant from pET21d (pHJM100) in E. coli BL21 codonPlus (DE3)-RIL; C-terminal ~60 (Form 1) or 20 (Form 2) residues disordered; one molecule per asymmetric unit in Form 1
T1 sequence (O73946 1-720): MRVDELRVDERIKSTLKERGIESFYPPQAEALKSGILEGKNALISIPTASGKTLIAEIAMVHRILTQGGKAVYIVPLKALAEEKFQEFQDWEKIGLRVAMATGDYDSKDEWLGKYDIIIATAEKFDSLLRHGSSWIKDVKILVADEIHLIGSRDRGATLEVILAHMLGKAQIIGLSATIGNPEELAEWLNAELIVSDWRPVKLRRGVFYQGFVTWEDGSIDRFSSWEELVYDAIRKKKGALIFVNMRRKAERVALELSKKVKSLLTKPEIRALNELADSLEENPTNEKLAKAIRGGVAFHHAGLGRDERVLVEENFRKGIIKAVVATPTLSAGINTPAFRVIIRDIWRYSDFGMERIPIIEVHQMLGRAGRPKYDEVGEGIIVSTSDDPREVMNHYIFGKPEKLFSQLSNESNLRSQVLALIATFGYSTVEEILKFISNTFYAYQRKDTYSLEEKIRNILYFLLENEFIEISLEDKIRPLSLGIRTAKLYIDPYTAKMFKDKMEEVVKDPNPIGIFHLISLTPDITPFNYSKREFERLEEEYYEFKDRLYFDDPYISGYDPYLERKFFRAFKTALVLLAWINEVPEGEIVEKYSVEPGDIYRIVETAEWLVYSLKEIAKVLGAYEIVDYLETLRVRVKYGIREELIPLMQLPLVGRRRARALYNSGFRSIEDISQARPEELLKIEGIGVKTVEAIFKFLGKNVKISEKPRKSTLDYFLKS
Nature of the data set: X-ray crystal structure, soaked crystal. In kind it is binding. The note with it: Form 1 crystal soaked with 1 mM ATPgammaS, ADP modelled as hydrolysed product; 100 mM citrate pH 5.0, 1.6 M ammonium sulfate; 2.4 A; nucleotide site.

Data set [1] has as its target T2, PfuHjm (RecQ-like helicase Hjm, Hel308 family) (Pyrococcus furiosus, UniProt O73946 1-720).
T2 sequence: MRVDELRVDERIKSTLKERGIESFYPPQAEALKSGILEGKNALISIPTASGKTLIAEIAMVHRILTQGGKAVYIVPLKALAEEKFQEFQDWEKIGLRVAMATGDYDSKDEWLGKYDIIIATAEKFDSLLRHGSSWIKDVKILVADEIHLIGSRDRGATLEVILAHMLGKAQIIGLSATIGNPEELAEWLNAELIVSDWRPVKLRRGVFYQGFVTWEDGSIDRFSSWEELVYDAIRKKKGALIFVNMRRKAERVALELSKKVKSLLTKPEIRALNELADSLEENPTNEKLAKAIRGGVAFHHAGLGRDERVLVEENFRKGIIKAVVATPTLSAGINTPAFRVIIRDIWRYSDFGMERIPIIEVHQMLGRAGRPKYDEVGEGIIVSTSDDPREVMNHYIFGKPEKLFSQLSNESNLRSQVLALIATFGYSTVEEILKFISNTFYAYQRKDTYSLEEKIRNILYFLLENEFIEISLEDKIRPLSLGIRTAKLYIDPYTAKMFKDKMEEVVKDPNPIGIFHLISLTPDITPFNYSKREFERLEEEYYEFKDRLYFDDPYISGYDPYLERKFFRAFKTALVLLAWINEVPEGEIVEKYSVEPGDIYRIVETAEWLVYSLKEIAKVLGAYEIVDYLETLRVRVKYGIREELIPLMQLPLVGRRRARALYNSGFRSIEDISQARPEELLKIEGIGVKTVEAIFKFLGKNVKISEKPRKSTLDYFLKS
Description: negative-stain single-particle EM (23 A) of complex purified by gel filtration; no nucleotide added; 50 mM Tris-HCl pH 8.0, 0.15 M NaCl, 0.5 mM EDTA, 1 mM DTT, 10% glycerol, room temperature, 20 min, 1:1 protein/DNA. Particulars: protein: recombinant; hairpin with 3' overhang. Background: Size exclusion chromatography separates by hydrodynamic size, large species first.

Here are results for two molecules from paper PMC2636818, “Atomic structures and functional implications of the archaeal RecQ-like helicase Hjm” (BMC Structural Biology, 2009).

Regarding `Nc1ncnc2c1ncn2[C@@H]1O[C@H](COP(=O)(O)OP(=O)(O)O)[C@@H](O)[C@H]1O` [ADP], the “X-ray crystal structure, soaked crystal” value on PfuHjm was “electron density corresponding to the hydrolyzed product ADP, rather than the soaked ATPγS”.

B1: 3' overhang hairpin DNA (structured_DNA)
DNA: AGCACTGCTATTCCCTAGCAGTGCTAGATGCACGAC
Regarding B1, in data set [1], the binding result is reported as “binds”.
